{
  "source": "paper PMC10942119",
  "about": "“S-nitrosylation of a receptor-like cytoplasmic kinase regulates plant immunity” (Science Advances, 2024)",
  "key": {"BIK1 (MBP-BIK1) [1]": {"biological_target": "T1, BIK1 (MBP-BIK1) (Arabidopsis thaliana, UniProt O48814)", "T1 construct": "coding region of BIK1, HisMBP-tagged (pDEST-HisMBP; a 6xHis version from pDEST17 was also made), tag kept, E. coli BL21(DE3)", "T1 sequence (O48814 1-395)": "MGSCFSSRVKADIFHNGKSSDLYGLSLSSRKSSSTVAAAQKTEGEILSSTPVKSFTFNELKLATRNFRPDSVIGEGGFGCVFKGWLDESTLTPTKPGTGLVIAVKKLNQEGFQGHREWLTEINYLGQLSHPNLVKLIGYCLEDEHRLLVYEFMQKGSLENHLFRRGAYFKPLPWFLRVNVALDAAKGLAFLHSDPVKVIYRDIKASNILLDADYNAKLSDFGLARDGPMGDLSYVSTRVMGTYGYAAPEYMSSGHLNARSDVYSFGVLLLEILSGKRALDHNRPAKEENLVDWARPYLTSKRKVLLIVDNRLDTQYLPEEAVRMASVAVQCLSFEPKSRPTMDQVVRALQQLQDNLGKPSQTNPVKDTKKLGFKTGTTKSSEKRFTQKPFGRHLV", "assay": "biotin switch", "type": "binding", "details": "covalent; NO donor, S-nitrosylates cysteine; HEN buffer pH 7.7, 30 min, dark"}, "BIK1 (MBP-BIK1) [2]": {"biological_target": "T1, BIK1 (MBP-BIK1)", "assay": "biotin switch (anti-biotin Western blot); in vitro autophosphorylation assay", "type": "biochemical", "details": "covalent; NO donor, S-nitrosylates cysteine, reversed by DTT; raises autophosphorylation; HEN buffer pH 7.7, 30 min, dark"}, "BIK1 (MBP-BIK1) [3]": {"biological_target": "T2, BIK1 (MBP-BIK1) (Arabidopsis thaliana, UniProt O48814, K105E)", "T2 construct": "coding region of BIK1, HisMBP-tagged (pDEST-HisMBP; a 6xHis version from pDEST17 was also made), tag kept, E. coli BL21(DE3)", "T2 sequence (O48814 1-395 K105E)": "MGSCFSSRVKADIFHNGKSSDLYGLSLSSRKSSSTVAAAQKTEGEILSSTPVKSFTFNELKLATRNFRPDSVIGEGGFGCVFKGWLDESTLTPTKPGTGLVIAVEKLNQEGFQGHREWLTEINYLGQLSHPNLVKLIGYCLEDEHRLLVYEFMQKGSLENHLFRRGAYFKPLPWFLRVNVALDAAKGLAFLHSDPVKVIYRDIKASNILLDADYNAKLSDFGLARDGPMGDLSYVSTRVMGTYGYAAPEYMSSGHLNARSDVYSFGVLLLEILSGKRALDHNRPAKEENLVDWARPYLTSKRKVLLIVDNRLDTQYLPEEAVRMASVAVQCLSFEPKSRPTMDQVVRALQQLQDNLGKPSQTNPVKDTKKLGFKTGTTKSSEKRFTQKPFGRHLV", "assay": "biotin switch", "type": "binding", "details": "covalent; NO donor (donor not named for this figure; GSNO in the same passage); kinase-dead mutant, GSNO gave no autophosphorylation"}, "[4]": {"biological_target": "T3, MBP-BIK1 (recombinant botrytis-induced kinase 1 fused to maltose binding protein) (Arabidopsis (Col-0 cDNA), UniProt O48814 1-395)", "T3 construct": "botrytis-induced kinase 1 (BIK1), Arabidopsis; coding region amplified from Col-0 cDNA; The text calls the protein in the pull-down pBIK1 as well; a phosphorylation state of the recombinant protein is not defined; also called recombinant BIK1; pDEST-HisMBP-BIK1; source: E. coli BL21(DE3), purified (amylose magnetic beads)", "T3 sequence (looked up)": "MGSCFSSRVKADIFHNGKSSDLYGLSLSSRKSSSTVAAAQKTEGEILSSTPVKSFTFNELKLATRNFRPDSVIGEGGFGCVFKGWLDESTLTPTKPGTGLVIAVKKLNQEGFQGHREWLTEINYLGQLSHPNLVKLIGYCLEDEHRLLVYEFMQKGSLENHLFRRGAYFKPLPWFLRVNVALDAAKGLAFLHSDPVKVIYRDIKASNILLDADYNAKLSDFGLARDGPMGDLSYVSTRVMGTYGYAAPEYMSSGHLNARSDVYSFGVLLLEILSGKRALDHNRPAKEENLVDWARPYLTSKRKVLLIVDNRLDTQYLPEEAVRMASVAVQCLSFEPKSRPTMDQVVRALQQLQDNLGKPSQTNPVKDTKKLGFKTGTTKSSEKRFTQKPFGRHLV", "assay": "pull-down; GST-RB-N on Glutathione Sepharose 4B incubated with MBP or MBP-BIK1 (untreated or pretreated with 10 uM GSNO or 100 uM DTT); 30 mM Hepes, 100 mM NaCl, 0.2% Triton X-100, pH 7.5; 4°C, 4 hours, dark; anti-MBP immunoblot", "details": "both partners purified"}, "[5]": {"biological_target": "T4, GSNO-pretreated MBP-BIK1 (S-nitrosylated BIK1, BIK1-SNO) (Arabidopsis (Col-0 cDNA), UniProt O48814 1-395, S-nitrosylation by GSNO pre-treatment; the paper assigns S-nitrosylation to Cys80)", "T4 construct": "botrytis-induced kinase 1 (BIK1), Arabidopsis; coding region amplified from Col-0 cDNA; same construct as m1; Same protein as m1 after treatment with the NO donor; which cysteines carried SNO in this sample was not determined in the pull-down itself", "T4 sequence (looked up)": "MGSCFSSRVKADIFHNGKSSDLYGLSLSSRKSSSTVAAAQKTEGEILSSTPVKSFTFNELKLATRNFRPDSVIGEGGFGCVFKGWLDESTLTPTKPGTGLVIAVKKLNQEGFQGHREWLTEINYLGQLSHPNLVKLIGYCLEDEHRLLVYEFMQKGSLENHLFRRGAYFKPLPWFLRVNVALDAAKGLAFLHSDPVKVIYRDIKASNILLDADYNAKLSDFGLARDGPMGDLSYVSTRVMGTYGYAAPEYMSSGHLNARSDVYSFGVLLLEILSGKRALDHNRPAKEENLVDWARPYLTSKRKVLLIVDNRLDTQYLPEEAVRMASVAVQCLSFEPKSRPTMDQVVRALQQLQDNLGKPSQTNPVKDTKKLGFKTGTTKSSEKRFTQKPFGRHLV", "assay": "pull-down; GST-RB-N on Glutathione Sepharose 4B incubated with MBP or MBP-BIK1 (untreated or pretreated with 10 uM GSNO or 100 uM DTT); 30 mM Hepes, 100 mM NaCl, 0.2% Triton X-100, pH 7.5; 4°C, 4 hours, dark; anti-MBP immunoblot", "details": "both partners purified"}},
  "data": [
    {"molecule": "N[C@@H](CSN=O)C(=O)O", "note": "[Cys-NO]", "values": [
      {"measurement": "biotin switch", "setting": "BIK1 (MBP-BIK1) [1]", "value": "The natural NO donor, Cys-NO, also S-nitrosylated BIK1 in vitro"}
    ]},
    {"molecule": "N[C@@H](CCC(=O)N[C@@H](CSN=O)C(=O)NCC(=O)O)C(=O)O", "note": "[GSNO]", "values": [
      {"measurement": "biotin switch (anti-biotin Western blot); in vitro autophosphorylation assay", "setting": "BIK1 (MBP-BIK1) [2]", "value": "BIK1 was S-nitrosylated in a concentration-dependent fashion by GSNO"},
      {"measurement": "biotin switch", "setting": "BIK1 (MBP-BIK1) [3]", "value": "NO induced S-nitrosylation of BIK1^K105E (fig. S6F)"}
    ]},
    {"molecule": "GST-RBOHD-N (GST-tagged N terminus of respiratory burst oxidase homolog D) (domain or fragment, Arabidopsis, UniProt Q9FIJ0 1-376, looked up, respiratory burst oxidase homolog D (RBOHD), Arabidopsis; 1128 bp make 376 codons; also called GST-RB-N; N-RBOHD; source: E. coli BL21(DE3), purified (Glutathione Sepharose 4B)) MKMRRGNSSNDHELGILRGANSDTNSDTESIASDRGAFSGPLGRPKRASKKNARFADDLPKRSNSVAGGRGDDDEYVEITLDIRDDSVAVHSVQQAAGGGGHLEDPELALLTKKTLESSLNNTTSLSFFRSTSSRIKNASRELRRVFSRRPSPAVRRFDRTSSAAIHALKGLKFIATKTAAWPAVDQRFDKLSADSNGLLLSAKFWECLGMNKESKDFADQLFRALARRNNVSGDAITKEQLRIFWEQISDESFDAKLQVFFDMVDKDEDGRVTEEEVAEIISLSASANKLSNIQKQAKEYAALIMEELDPDNAGFIMIENLEMLLLQAPNQSVRMGDSRILSQMLSQKLRPAKESNPLVRWSEKIKYFILDNWQR", "values": [
      {"measurement": "binding result", "setting": "[4]", "value": "binds"},
      {"measurement": "binding result", "setting": "[5]", "value": "binds"}
    ]}
  ]
}
